Laboratory results from PMC11129182, “Development of Inhibitors, Probes, and PROTAC Provides a Complete Toolbox to Study PARK7 in the Living Cell” (Journal of Medicinal Chemistry, 2024).
Where two headings read alike, the source gives them in different places. Residues, ends and D or L forms follow the SMILES beside them. *: point of attachment. Cbz = O=C(OCc1ccccc1)*

What was measured:
PARK7 [1] = target: T1, PARK7 (Homo sapiens, UniProt Q99497); assay: Hit validation and pure-compound testing in the PARK7 FP assay with JYQ-107; type: biochemical; settings: for inhibition at 0.25 µM: read-out: % Inhibition 0.25 µM; for potency in FP assay compared to JYQ-88: 0.25 and 1 μM; for inhibition at 0.5 µM: read-out: % Inhibition 0.5 µM
T1 sequence (Q99497 1-189): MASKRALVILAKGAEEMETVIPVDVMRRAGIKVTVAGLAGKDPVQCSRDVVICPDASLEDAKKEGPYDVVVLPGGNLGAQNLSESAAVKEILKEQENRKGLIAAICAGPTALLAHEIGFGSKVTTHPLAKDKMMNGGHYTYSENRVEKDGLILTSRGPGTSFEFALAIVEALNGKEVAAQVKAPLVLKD

PARK7 [2] = target: T1, PARK7; assay: Cell-based competition assay with probe JYQ-92 in HEK293T cells; settings: 24 h; for cellular target engagement of PARK7: live HEK293T cells, 5 μM
Experimental: Samples were resolved by SDS-PAGE and analyzed by fluorescence scanning and Western blotting (Figure 2B). The target engagement of cellular PARK7 is reflected by the disappearance of the PARK7 labeling band in the fluorescence gel scan and by the loss of the shifted probe-labeled PARK7 band in the Western blot.
HEK293T cells were treated with the indicated concentrations of indicated inhibitors for indicated incubation time.
Figure S1. Assessment of the cell permeability of JYQ -88. (A) Structure of JYQ-92.
(B) Target engagement of JYQ-88 in HEK293T cells. HEK293T cells were incubated […]
with PARK7 probe JYQ-92 fo r 1 h at 37 °C. The reactions were stopped by the addition of NuPAGE™ LDS sample buffer (4x). Samples were resolved by SDS -PAGE using […]
fluorescence scanning on a Typhoon FLA 9500 (GE Healthcare Life Sciences) using […]
The disappearance of the JYQ-92-labeled band in […]
of JYQ-88 is used as a measurement of cellular PARK7 engagement with JYQ -88.
(§1) (1 picture or pasted object on this page, not shown here)

PARK7 [3] = target: T1, PARK7; assay: High-throughput screen of the crude compound library, PARK7 fluorescence polarization (FP) assay with FP reagent JYQ-107; type: biochemical; settings: for inhibition at 1.25 µM: read-out: HTS FP assay %Inhibition (1.25 µM)
DUBs = assay: Activity-based DUB profiling with Rho-Ub-PA probe in HEK293T cells; type: cell-based, human; settings: 5 µM, 24 h
Experimental: Figure S3. Activity evaluation of inhibitors against DUBs in HEK293T cells. (A ) Inhibitors from structure modification. (B) Inhibitors from HTS. HEK293T cells were […]
incubation with Rho- Ub-PA probe for 30 min at 37 °C. Samples were resolved by SDS - […]
and visualized by fluorescence scanning on a Typhoon FLA 9500 (GE Healthcare Life […]
Nitrocellulose membranes and Western blot analysis.
as §1

PARK7 [4] = target: T1, PARK7; assay: Activity evaluation of PROTACs in cells (PARK7 degradation, immunoblot); settings: A549 cells, pretreatment 4 h (5 μM pomalidomide, 5 μM JYQ-173 or 10 μM MG-132), then JYQ-194 5 μM 8 h
Experimental: A549 cells were seeded into 6-well plates. The next day after seeding, cells were incubated with the indicated concentrations of indicated PROTACs for 8 h. The cells were then washed with PBS and collected. The collected cell pellets were lysed with Tris-triton buffer as described above. The prepared cell lysate of each sample (10 μL) was added 5 μL 3× LDS + 5% β-mercaptoethanol, and boiled for 10 min.

PARK7 [5] = target: T1, PARK7; assay: biochemical; design: Fluorescence polarization competition: residual PARK7 labelling by JYQ-107 probe after 1 h preincubation, % inhibition; settings: sheet Validation pure compounds
Experimental: The 15 pure compounds from the two different approaches (5 compounds from structure modification and 10 compounds from HTS) were assessed for their potency to inhibit PARK7 at 0.25 and 1 μM final concentrations using the FP assay (Figure 2A). […] Fifty four compounds showing inhibition above 90% were picked and checked at three different concentrations. Using a Labcyte Echo550 acoustic dispenser, 20, 10, and 5 nL of 1 mM compound stock solutions were transferred from the source plates into an empty 384-well plate to obtain 1, 0.5, 0.25 μM final concentrations. […] The relative loss of FP signal compared with reference controls (5 mM NEM, 100% inhibition, and DMSO, 0% inhibition) was used to calculate the remaining enzyme activity. The inhibition percentage of these 54 compounds was plotted as heatmaps using Graphpad Prism 9.0.1 software. […] Stock solutions of 0.26 μM PARK7 and 80 nM JYQ-107 were prepared. Using a Labcyte Echo550 acoustic dispenser, 10 nL of 1 mM DMSO stock solutions of the library compounds was transferred from the source plates into the empty 1536-well screening plates to obtain a 1.25 μM final compound concentration. Next, PARK7 (6 μL, final concentration 0.2 μM) was dispensed using a Biotek MultiflowFX [compound left out] dispenser and incubated for 2 h, followed by dispensing the probe JYQ-107 (2 μL, final concentration 20 nM). […] The percentage inhibition of each compound was calculated from the FP values, normalized to the positive (5 mM N-ethylmaleimide, 100% inhibition) and negative (DMSO, 0% inhibition) controls.

[6] = 1.25 µM, crude compound library

N#CN1CC[C@@H](C(=O)Nc2nc3c(s2)CN(C(=O)CN2CCOCC2)CC3)C1 [Compound 1, (R)-1-Cyano-N-(5-(2-morpholinoacetyl)-4,5,6,7-tetrahydrothiazolo[5,4-c]pyridin-2-yl)pyrrolidine-3-carboxamide]
inhibition at 0.25 µM (PARK7 [1]; pure compounds): 62.8%
inhibition at 1 µM (PARK7 [1]; pure compounds): 87.7%
potency in FP assay compared to JYQ-88 (PARK7 [1]; pure compounds): did not improve
cellular target engagement of PARK7 (PARK7 [2]): did not bind with PARK7 in cells

CN1CCN(CC(=O)N2CCc3nc(NC(=O)[C@@H]4CCN(C#N)C4)sc3C2)CC1 [Compound 2, (R)-1-Cyano-N-(5-(2-(4-methylpiperazin-1-yl)acetyl)-4,5,6,7-tetrahydrothiazolo[5,4-c]pyridin-2-yl)pyrrolidine-3-carboxamide]
inhibition at 0.25 µM (PARK7 [1]; pure compounds): 53.7%
inhibition at 1 µM (PARK7 [1]; pure compounds): 83.7%
potency in FP assay compared to JYQ-88 (PARK7 [1]; pure compounds): did not improve
cellular target engagement of PARK7 (PARK7 [2]): did not bind with PARK7 in cells

N#CN1CC[C@@H](C(=O)Nc2nc3c(s2)CN(C(=O)CN2CCNCC2)CC3)C1 [Compound 4, (R)-1-Cyano-N-(5-(2-(piperazin-1-yl)acetyl)-4,5,6,7-tetrahydrothiazolo[5,4-c]pyridin-2-yl)pyrrolidine-3-carboxamide]
inhibition at 0.25 µM (PARK7 [1]; pure compounds): 40.2%
inhibition at 1 µM (PARK7 [1]; pure compounds): 59.9%
potency in FP assay compared to JYQ-88 (PARK7 [1]; pure compounds): lowered
cellular target engagement of PARK7 (PARK7 [2]): did not bind with PARK7 in cells

N#CN1CC[C@@H](C(=O)Nc2nc3c(s2)CN(C(=O)CC2CCNCC2)CC3)C1 [Compound 5, (R)-1-Cyano-N-(5-(2-(piperidin-4-yl)acetyl)-4,5,6,7-tetrahydrothiazolo[5,4-c]pyridin-2-yl)pyrrolidine-3-carboxamide]
inhibition at 0.25 µM (PARK7 [1]; pure compounds): 38.5%
inhibition at 1 µM (PARK7 [1]; pure compounds): 71%
potency in FP assay compared to JYQ-88 (PARK7 [1]; pure compounds): lowered
cellular target engagement of PARK7 (PARK7 [2]): did not bind with PARK7 in cells

N#CN1CC[C@@H](C(=O)Nc2nc3c(s2)CN(C(=O)c2cnc(-c4cccs4)s2)CC3)C1 [Compound 108, (R)-1-Cyano-N-(5-(2-(thiophen-2-yl)thiazole-5-carbonyl)-4,5,6,7-tetrahydrothiazolo[5,4-c]pyridin-2-yl)pyrrolidine-3-carboxamide]
inhibition at 1.25 µM (PARK7 [3]; [6]): 90.8%
inhibition at 0.25 µM (PARK7 [1]; crude compounds): 64.2%
inhibition at 0.5 µM (PARK7 [1]; crude compounds, 0.5 µM): 85.7%
inhibition at 1 µM (PARK7 [1]; crude compounds): 98.5%
inhibition at 0.25 µM (PARK7 [1]; pure compounds): 67.9%
inhibition at 1 µM (PARK7 [1]; pure compounds): 93.1%
inhibition of DUBs in cells (DUBs): showed inhibition of one or more DUBs, mainly UCHL1

Cc1csc(-c2cccc(C(=O)N3CCc4nc(NC(=O)[C@@H]5CCN(C#N)C5)sc4C3)c2)n1 [Compound 334, (R)-1-Cyano-N-(5-(3-(4-methylthiazol-2-yl)benzoyl)-4,5,6,7-tetrahydrothiazolo[5,4-c]pyridine-2-yl)pyrrolidine-3-carboxamide]
inhibition at 1.25 µM (PARK7 [3]; [6]): 89.4%
inhibition at 0.25 µM (PARK7 [1]; crude compounds): 68.5%
inhibition at 0.5 µM (PARK7 [1]; crude compounds, 0.5 µM): 86.9%
inhibition at 1 µM (PARK7 [1]; crude compounds): 97.3%
inhibition at 0.25 µM (PARK7 [1]; pure compounds): 84.2%
inhibition at 1 µM (PARK7 [1]; pure compounds): 95.6%
inhibition of DUBs in cells (DUBs): showed inhibition of one or more DUBs, mainly UCHL1

CC(=O)N1CCN(S(=O)(=O)c2cccc(C(=O)N3CCc4nc(NC(=O)[C@@H]5CCN(C#N)C5)sc4C3)c2)CC1 [Compound 336, (R)-N-(5-(3-((4-Acetylpiperazin-1-yl)sulfonyl)benzoyl)-4,5,6,7-tetrahydrothiazolo[5,4-c]pyridin-2-yl)-1-cyanopyrrolidine-3-carboxamide]
inhibition at 1.25 µM (PARK7 [3]; [6]): 91.8%
inhibition at 0.25 µM (PARK7 [1]; crude compounds): 76.8%
inhibition at 0.5 µM (PARK7 [1]; crude compounds, 0.5 µM): 91.5%
inhibition at 1 µM (PARK7 [1]; crude compounds): 98.3%
% Inhibition 0.25 µM (PARK7 [1]; pure compounds): 87.6%
inhibition at 0.25 µM (PARK7 [1]; pure compounds): ~100%
inhibition at 1 µM (PARK7 [1]; pure compounds): 98.5%
concentration from which PARK7 is engaged (PARK7 [2]; HEK293T cells, 0.1–5 μM dilution series): 1 µM
inhibition of DUBs in cells (DUBs): did not show interference with the activity of any DUB

Cc1cc(C(=O)N2CCc3nc(NC(=O)[C@@H]4CCN(C#N)C4)sc3C2)ccc1Br [Compound 415, (R)-N-(5-(4-Bromo-3-methylbenzoyl)-4,5,6,7-tetrahydrothiazolo[5,4-c]pyridin-2-yl)-1-cyanopyrrolidine-3-carboxamide]
inhibition at 1.25 µM (PARK7 [3]; 1.25 µM, crude compound library, FP reagent JYQ-107): 93.1%
inhibition at 0.25 µM (PARK7 [1]; crude compounds): 58%
inhibition at 0.5 µM (PARK7 [1]; crude compounds, 0.5 µM): 79.8%
inhibition at 1 µM (PARK7 [1]; crude compounds): 95.6%
inhibition at 0.25 µM (PARK7 [1]; pure compounds): 68.3%
inhibition at 1 µM (PARK7 [1]; pure compounds): 92.6%
inhibition of DUBs in cells (DUBs): showed inhibition of one or more DUBs, mainly UCHL1

CC(C)C[C@@H](C=O)NC(=O)[C@H](CC(C)C)NC(=O)[C@H](CC(C)C)NC(=O)OCc1ccccc1 [MG-132, reference compound] (Cbz-Leu-Leu-Leu-aldehyde)
effect of pretreatment on JYQ-194-induced PARK7 degradation (PARK7 [4]): abolished

N#CN1CC[C@@H](C(=O)Nc2nc3c(s2)CN(C(=O)c2cccc(O)c2)CC3)C1 [compound 3]
inhibition at 0.25 µM (PARK7 [5]): 58.4%
inhibition at 1 µM (PARK7 [5]): 90.1%

N#CN1CC[C@@H](C(=O)Nc2nc3c(s2)CN(C(=O)c2cccc(S(=O)(=O)NCC4CCCO4)c2)CC3)C1 (some centres unmarked) [compound 55]
inhibition at 0.25 µM (PARK7 [5]): 64.7%
inhibition at 1 µM (PARK7 [5]): 93.5%

N#CN1CC[C@@H](C(=O)Nc2nc3c(s2)CN(C(=O)c2cccc(S(=O)(=O)NCCc4ccc(S(N)(=O)=O)cc4)c2)CC3)C1 [compound 199]
inhibition at 0.25 µM (PARK7 [5]): 80.7%
inhibition at 1 µM (PARK7 [5]): 94.6%

Nc1cccc2c1C(=O)N(C1CCC(=O)NC1=O)C2=O (centres unmarked) [pomalidomide, reference compound]
effect of pretreatment on JYQ-194-induced PARK7 degradation (PARK7 [4]): abolished

(R)-N-(5-(3-(1,2,4-Oxadiazol-3-yl)benzoyl)-4,5,6,7-tetrahydrothiazolo[5,4-c]pyridin-2-yl)-1-cyanopyrrolidine-3-carboxamide [Compound 199]
HTS FP assay %Inhibition (1.25 µM) (PARK7 [3]; [6]): 95.3%
% Inhibition (PARK7 [3]; HTS of crude compound library, sheet "SMILES+%Inh HTS"): 95.3%
% Inhibition 0.25 µM (PARK7 [1]; crude compounds): 81.4%
% Inhibition 0.5 µM (PARK7 [1]; crude compounds, 0.5 µM): 91.6%
% Inhibition 1 µM (PARK7 [1]; crude compounds): 98.6%
% Inhibition 0.25 µM (PARK7 [1]; pure compounds): 80.7%
% Inhibition 1 µM (PARK7 [1]; pure compounds): 94.6%
inhibition of DUBs in cells (DUBs): showed inhibition of one or more DUBs, mainly UCHL1
